Data taken from PMC8426418 (Therapeutic drug monitoring, 2021).
Values joined by “and” are separate entries in the source; they are usually repeats but may differ in a detail not shown here. Equal entries are not always repeated. Where two headings read alike, the source gives them in different places.

Experiments:
[1] = for change in formation clearance (CLf) during pregnancy compared to postpartum: T2 or T3 vs matched postpartum; for CL renal: female, human, urine and plasma, oral, CLR (renal clearance); for CL renal / CLR (renal clearance): geometric mean [range]
[2] = Steady-state plasma concentrations of BUP and metabolites in pregnancy; conditions: for Css (dose-normalized steady-state plasma concentration) / metabolite/BUP steady-state concentration ratio: geometric mean [range]; for steady-state concentration relative to BUP: pregnant women and postpartum
[3] = type: in vivo, human; conditions: at delivery, three subjects; for maternal plasma steady-state concentration / umbilical cord venous plasma steady-state concentration: mean±SE; for fetal to maternal ratio (umbilical cord venous plasma to maternal plasma concentration): steady-state
[4] = cited from earlier work
[5] = postpartum (PP) matched to T2, n=5
[6] = postpartum (PP) matched to T3, n=5

| SMILES | change in formation clearance (CLf) during pregnancy compared to postpartum [1] | Css (dose-normalized steady-state plasma concentration) [2, 5] | Css (dose-normalized steady-state plasma concentration) [2, 6] | Css (dose-normalized steady-state plasma concentration) ([2]; second trimester (T2), n=5) | Css (dose-normalized steady-state plasma concentration) ([2]; third trimester (T3), n=5) | maternal plasma steady-state concentration [3] [µM/g] | umbilical cord venous plasma steady-state concentration [3] [µM/g] | metabolite/BUP steady-state concentration ratio [2, 5] | metabolite/BUP steady-state concentration ratio [2, 6] | metabolite/BUP steady-state concentration ratio ([2]; second trimester (T2), n=5) | metabolite/BUP steady-state concentration ratio ([2]; third trimester (T3), n=5) | steady-state concentration relative to BUP ([2]; this study) | plasma concentration exceeding BUP concentration [4] | CLR (renal clearance) [1, 5] | CLR (renal clearance) [1, 6] | CLR (renal clearance) ([1]; second trimester (T2), n=5) | CLR (renal clearance) ([1]; third trimester (T3), n=5) | other results |
| --- | --- | --- | --- | --- | --- | --- | --- | --- | --- | --- | --- | --- | --- | --- | --- | --- | --- | --- |
| CC(NC(C)(C)C)C(=O)c1ccc(O)c(Cl)c1 (stereo not drawn) [4’OH-BUP, 4’-hydroxy-bupropion] | no changes |  |  |  |  |  |  |  |  |  |  |  |  |  |  |  |  |  |
| CC(NC(C)(C)C)C(=O)c1cccc(Cl)c1 (stereo not drawn) [BUP, Bupropion, reference compound] |  | 0.53 [0.11–1.3] μM/g | 0.41 [0.11–1.1] μM/g | 0.33 [0.08–1.2] μM/g | 0.44 [0.19–1.2] μM/g | 0.5 ± 0.2 | 0.2 ± 0.1 |  |  |  |  |  |  |  |  |  |  | CL renal ([1]; second trimester (T2), n=5): 40 mL/min; CL renal ([1]; third trimester (T3), n=5): 30 mL/min |
| CC(NC(C)(C)C)C(O)c1cccc(Cl)c1 (stereo not drawn) [Erythro, erythrohydrobupropion] | no changes | 0.67 [0.25–1.7] μM/g | 0.80 [0.25–1.7] μM/g | 0.49 [0.33–0.78] μM/g | 0.63 [0.52–0.79] μM/g | 0.5 ± 0.5 | 0.3 ± 0.3 | 1.3 [0.5–3.2] | 1.9 [1.2–3.2] | 1.5 [0.4–4.2] | 1.4 [0.6–2.7] | similar | 3–30 fold | 1.6 [0.36–9.7] L/h | 1.9 [0.36–9.7] L/h | 2.1 [0.91–4.4] L/h | 1.2 [0.74–1.7] L/h |  |
| C[C@H]1NC(C)(C)CO[C@]1(O)c1cccc(Cl)c1 [OH-BUP, hydroxybupropion] | no changes | 16.3 [4.9–39.6] μM/g | 13.3 [4.9–39.6] μM/g | 15.1 [10.6–18.7] μM/g | 16.5 [6.3–30.9] μM/g |  |  |  |  |  |  | 28–33 fold and 30 fold | 3–30 fold | 0.10 [0.02–0.54] L/h | 0.10 [0.03–0.46] L/h | 0.20 [0.11–0.36] L/h | 0.08 [0.04–0.12] L/h | steady-state concentration relative to racemic BUP ([4]; non-pregnant subjects): 28 fold |
| C[C@H]1NC(C)(C)CO[C@]1(O)c1cccc(Cl)c1 [R,R-OH-BUP] |  | 15.9 [5.5–35.7] μM/g | 14.0 [5.5–35.7] μM/g | 15.8 [10.0–22.2] μM/g | 13.7 [5.9–21.2] μM/g | 19.1 ± 12.0 | 6.4 ± 3.1 | 32.5 [15.8–77.2] | 35.6 [15.2–77.2] | 43.8 [16.4–178.7] | 33.7 [13.5–99.1] |  |  | 0.08 [0.02–0.45] L/h | 0.09 [0.03–0.35] L/h | 0.15 [0.07–0.32] L/h | 0.07 [0.05–0.09] L/h | R,R-OH-BUP steady-state concentration relative to S,S-OH-BUP ([2]; this study): 14–20 fold; fetal to maternal ratio (umbilical cord venous plasma to maternal plasma concentration) [3]: 0.4±0.1; R,R-OH-BUP exposure relative to S,S-OH-BUP [4]: up to 65 fold; R,R-OH-BUP concentration relative to S,S-OH-BUP ([4]; non-pregnant subjects): 40–65 fold |
| C[C@@H](NC(C)(C)C)C(=O)c1cccc(Cl)c1 [R-BUP, R-bupropion, reference compound] |  |  |  |  |  |  |  |  |  |  |  |  |  |  |  |  |  | circulating concentration of R-BUP relative to S-BUP [4]: 3- to 6 fold |
| C[C@@H]1NC(C)(C)CO[C@@]1(O)c1cccc(Cl)c1 [S,S-OH-BUP] |  | 0.78 [0.10–2.2] μM/g | 0.64 [0.10–2.2] μM/g | 0.73 [0.20–1.4] μM/g | 0.83 [0.36–1.7] μM/g | 0.8 ± 0.6 | 0.4 ± 0.2 | 1.5 [0.7–5.9] | 1.6 [0.8–5.9] | 2.2 [1.0–6.0] | 1.9 [0.9–8.7] |  |  | 0.35 [0.09–3.5] L/h | 0.47 [0.09–3.5] L/h | 0.93 [0.31–3.4] L/h | 0.40 [0.24–0.72] L/h |  |
| C[C@H](NC(C)(C)C)[C@@H](O)c1cccc(Cl)c1 [Threo, threohydrobupropion] | no changes | 4.1 [1.2–10.8] μM/g | 4.7 [1.2–10.8] μM/g | 3.4 [1.8–6.7] μM/g | 4.9 [3.1–10.7] μM/g | 4.9 ± 5.3 | 3.7 ± 4.3 | 7.8 [3.5–17.6] | 11.5 [9.7–17.6] | 10.3 [4.8–23.1] | 11.2 [5.6–16.6] | 8–10 fold and 10 fold | 3–30 fold | 2.4 [0.55–17.6] L/h | 2.9 [0.59–17.6] L/h | 3.9 [1.7–8.6] L/h | 2.0 [1.1–2.8] L/h | fetal to maternal ratio (umbilical cord venous plasma to maternal plasma concentration) [3]: 0.7±0.1; steady-state concentration relative to racemic BUP ([4]; non-pregnant subjects): 5 fold |
